The values that follow come from publication PMC3534098 (PLoS ONE, 2012).

Assay in data set [1]: not given
The source holds these as a separate data set.

For data set [2], the system named is M. bovis BCG strain Pasteur. Kind of data set: microbe, parasite or virus in culture. The class given is cell-based. Particulars: Mycobacterium tuberculosis variant bovis BCG, read-out: MIC M. bovis BCG.
In data set [3] the test system is L1210, HepG2, NEURO 2A, MDCK and H9C2(2-1).
Data set [4] can be described thus: in vitro. Particulars: mouse, microsomes, pH 7.4.
Data set [5] relates to M. tuberculosis H37Rv. The data set is described as follows: microbe, parasite or virus in culture. It counts as cell-based. The settings on record: Mycobacterium tuberculosis, read-out: MIC H37Rv.
The test system of data set [6] is Enterococcus faecium, Enterococcus faecalis, Haemophilus influenzae, Moraxella catarrhalis, Streptococcus pneumoniae, Escherichia coli and Streptococcus …. It counts as cell-based, Gram-positive and Gram-negative organisms.
Data set [7] is described as follows: in vitro. The settings on record: human, microsomes, pH 7.4.
In another data set the test system is M. tuberculosis Beijing. Kind of data set: microbe, parasite or virus in culture. The class given is cell-based. Particulars: Mycobacterium tuberculosis, read-out: MIC Beijing.
Another data set concerns M. tuberculosis CDC1551. The data set is described as follows: microbe, parasite or virus in culture. The settings on record: Mycobacterium tuberculosis, CDC1551, read-out: MIC CDC1551. The class given is cell-based.
The test system of a further data set is M. tuberculosis inh233. The data set is described as follows: microbe, parasite or virus in culture. It counts as cell-based. The settings on record: Mycobacterium tuberculosis, INH233, read-out: MIC inh233.
A further data set addresses cytochrome bc 1 complex. On the set-up: method as in PMID 6327677. Particulars: high affinity binding site Qo; cited from earlier work.
In data set [8] the test system is M. tuberculosis H37Rv. Kind of data set: Dose response efficacy in acute murine model of TB infection. It counts as in vivo, B6 mice. How it is done: (§1) For pharmacokinetic studies C57BL/6 female mice of 18–20 g weight were used. Experimental compounds were administered through oral gavage at 50 mg/kg dose at a concentration of 20 ml/kg. All mice received treatment in the fed state. Peripheral total blood was the compartment chosen for the establishment of compound concentrations. Drugs were administered as 1% methyl cellulose suspensions and the blood sampling scheme was: 15, 30 and 45 minutes, 1, 1.5, 2, 3, 4, 8 and 24 hours. At each time-point, blood from 4 different animals was obtained. LC-MS was used as the analytical method of choice for the establishment of compound concentration in blood with a sensitivity of LLQ = 1–5 ng/ml in […]. The non-compartmental data analysis was performed with WinNonlin 5.0 and supplementary analysis was performed with GraphPad 4 software. Dose-response studies in an acute murine infection TB model were carried out as previously described.
Figure 3 Therapeutic efficacy of anti-tubercular IP 3 against M. tuberculosis H37Rv in vivo. B6 mice were infected by intra-tracheal instillation with 10^5 cfu M. tuberculosis H37Rv per mouse. The mice were treated with the anti-tubercular orally once a day from day 1 to day 8. Efficacy results are expressed as log cfu reduction in the lungs of infected mice and are the mean±SD of five mice. The shaded line indicates the levels of administered mycobacterial inoculum.

Data set [9] is described as follows: Whole blood pharmacokinetics after oral administration in mice. The class given is in vivo, C57BL/6 female mice. The settings on record: female, mouse, oral 50 mg/kg suspension in 1% aqueous methylcellulose. As to the method: as §1
Figure 2 Whole blood pharmacokinetic profile and main parameters of IP 3 after oral administration of a 50 mg/kg suspension in 1% aqueous methylcellulose.

≈ marks a conversion by molar mass, not a printed value. Read-outs that look alike come from different tables or passages of the source. Bounds are passed on as bounds.

`Cc1ccc2nc(C)c(C(=O)NCc3ccc(Cl)nc3)n2c1` [IP 4, N-((6-Chloropyridin-3-yl)methyl)-2,6-dimethylimidazo[1,2-a]pyridine-3-carboxamide]: where the note is “mouse, microsomes”, the “Mouse CLint” value is given as 7.4 ml/min/gprotein. The “Human CLint” value in data set [1] (human, microsomes) is on record as 2.3 ml/min/gprotein. For the same compound, the MIC (in [2]; in the data set with M. tuberculosis H37Rv [5]) was 5 µM (≈ 1.57 µg/mL) in each case. The “Tox50 Cell lines” value in [3] is on record as “all>50 µM”. The half-life in “in vitro [4]” was 11.4 min; in “in vitro [7]” it was over 30 min. The “MIC Anti-bacterial panel” value in data set [6] was “all>16 µM”.
`Cc1ccc2nc(C(F)(F)F)c(C(=O)NCc3cccc(Cl)c3)n2c1` [IP 2]: the “Mouse CLint” value (mouse liver microsomes) was over 30 ml/min/gprotein. The “Human CLint” value in [1] (human liver microsomes) is over 30 ml/min/gprotein. The MIC with M. tuberculosis Beijing is 0.06 µM (≈ 0.0221 µg/mL); in the data set on M. tuberculosis CDC1551, 0.06 µM (≈ 0.0221 µg/mL); in the data set on M. tuberculosis inh233, 0.03 µM (≈ 0.011 µg/mL); in the data set on M. tuberculosis H37Rv [5], 0.2 µM (≈ 0.0736 µg/mL). For the same compound, the “Tox50 Cell lines” value in data set [3] is “all>50 µM”. The half-life at 0.5 mM in the data set “in vitro [4]” and in “in vitro [7]” was under 3 min in each case. Also, in data set [6], the “MIC Anti-bacterial panel” value is “all>16 µM”.
For the compound `CO/C(=C/C(N)=O)[C@H](C)[C@H](/C=C/c1csc(-c2csc([C@@H](C)/C=C/C=C/C(C)C)n2)n1)OC` [Myxothiazol, myxothiazol], on cytochrome bc 1 complex, the Kd is under 1 nM.
As to `Cc1ccc2nc(C)c(C(=O)NCc3ccc(C(F)(F)F)cc3)n2c1` [IP 3, 2,6-Dimethyl-N-(4-(trifluoromethyl)benzyl)imidazo[1,2-a]pyridine-3-carboxamide], the “log cfu reduction with respect to non-treated controls” value with M. tuberculosis H37Rv [8] (300 mg/kg orally once a day from day 1 to day 8, lungs of infected mice) was 2 log cfu; in the data set on M. tuberculosis H37Rv [8] (500 mg/kg orally once a day from day 1 to day 8, lungs of infected mice) it was 2 log cfu. In addition, the behavior in vivo result with M. tuberculosis H37Rv [8] (acute murine model of TB infection) is given as “bacteriostatic”. Besides, the signs of toxicity entry in the data set on M. tuberculosis H37Rv [8] (any of the administered doses, mice) is given as “No signs of toxicity”. Besides, where the note is “mouse, microsomes”, the “Mouse CLint” value is on record as 7 ml/min/gprotein. Besides, the “Human CLint” value in [1] (human, microsomes) is 4.9 ml/min/gprotein. Also, the values for the MIC (in data set [2]; with M. tuberculosis H37Rv [5]) were 0.5 µM (≈ 0.174 µg/mL) and 0.03 µM (≈ 0.0104 µg/mL), respectively. Also, the “Tox50 Cell lines” value in data set [3] was “all>25 µM”. Further, the half-life was 11.6 min in the data set “in vitro [4]” and 15.8 min in the data set “in vitro [7]”. The bioavailability in data set [9] (C57BL/6, whole blood, read-out: F (percentage bioavailability)) amounted to 61%. Moreover, the AUC in data set [9] (C57BL/6, whole blood, read-out: AUC (Area Under the Curve) (0–8 hours)) is 4360 ng·h/mL. For the same compound, the Cmax in data set [9] (C57BL/6, whole blood, read-out: Cmax (maximum concentration observed in whole blood)) amounted to 3400 ng/mL. Moreover, the “MIC Anti-bacterial panel” value in [6] is reported as “all>16 µM”.
On to `Cc1ccc2nc(C)c(C(=O)NCc3cccs3)n2c1` [IP 1], for which the “Mouse CLint” value (mouse liver microsomes) is over 30 ml/min/gprotein. The “Human CLint” value in data set [1] (human liver microsomes) amounted to 3.9 ml/min/gprotein. Further, the MIC was 0.03 µM (≈ 0.00856 µg/mL) with M. tuberculosis Beijing; 1 µM (≈ 0.285 µg/mL) in data set [2]; 0.06 µM (≈ 0.0171 µg/mL) with M. tuberculosis CDC1551; 0.03 µM (≈ 0.00856 µg/mL) in the data set on M. tuberculosis inh233; 0.2 µM (≈ 0.0571 µg/mL) with M. tuberculosis H37Rv [5]. For the same compound, in [3], the “Tox50 Cell lines” value was “all>25 µM”. Moreover, in “in vitro [4]”, the half-life at 0.5 mM is under 3 min. In data set [6], the “MIC Anti-bacterial panel” value is “all>64 µM”.
